Reference: patent US3954972A, “Antibiotic A-26771 factor” (Eli Lilly and Company, priority 1975, dated 1976)
“Also recorded” adds a separate entry of the source. Read-outs that look alike come from different tables or passages of the source.

Key:
Staphylococcus aureus [1] = assay: microbe, parasite or virus in culture; type: cell-based
Mycobacterium avium = assay: disc-plate assay, Mycobacterium avium; type: cell-based
Bacillus subtilis = assay: microbe, parasite or virus in culture; type: cell-based
Sarcina lutea = assay: microbe, parasite or virus in culture; type: cell-based; conditions: Micrococcus luteus
Escherichia coli = assay: microbe, parasite or virus in culture; type: cell-based
Klebsiella pneumoniae = assay: microbe, parasite or virus in culture; type: cell-based
Serratia marcescens = assay: microbe, parasite or virus in culture; type: cell-based
[2] = system: Saccharomyces pastorianum; assay: microbe, parasite or virus in culture; type: cell-based
Neurospora crassa = assay: microbe, parasite or virus in culture; type: cell-based
Candida albicans = assay: microbe, parasite or virus in culture; type: cell-based
Fusarium moniliforme = assay: microbe, parasite or virus in culture; type: cell-based; conditions: Fusarium verticillioides
[3] = system: Trichophyton mentagrophytes; assay: microbe, parasite or virus in culture; type: cell-based
Type III poliovirus = assay: microbe, parasite or virus in culture; type: cell-based
[4] = system: Coxsackie virus A-21 (COE strain); assay: microbe, parasite or virus in culture; type: cell-based; conditions: read-out: diameter of zone of virus inhibition
poliovirus III = type: in vivo, mice; conditions: for Z (zone diameter of viral inhibition by serum): BSC1 cells
electrometric titration = type: physicochemical; conditions: 66 percent dimethylformamide
[5] = system: several viruses, including polioviruses and Coxsackie virus; type: cell-based
White Swiss mice = assay: survival of mice after intraperitoneal injection; conditions: groups of four mice
Botrytis cinerea = assay: in vitro susceptibility (MIC), Botrytis cinerea; type: cell-based
Ceratocystis ulmi = assay: in vitro susceptibility (MIC), Ceratocystis ulmi; type: cell-based
Verticillium albo-atrum = assay: in vitro susceptibility (MIC), Verticillium albo-atrum; type: cell-based
Staphylococcus aureus [6] = assay: microbe, parasite or virus in culture
Streptococcus faecalis = assay: microbe, parasite or virus in culture; conditions: Enterococcus faecalis
Vibrio coli = assay: microbe, parasite or virus in culture; conditions: Campylobacter coli
Mycoplasma gallisepticum = assay: microbe, parasite or virus in culture; conditions: Mycoplasmoides gallisepticum
Mycoplasma granularum = assay: microbe, parasite or virus in culture; conditions: Acholeplasma granularum
Mycoplasma synoviae = assay: microbe, parasite or virus in culture; conditions: Mycoplasmopsis synoviae
Mycoplasma hyosynoviae = assay: microbe, parasite or virus in culture
Mycoplasma hyopneumoniae = assay: microbe, parasite or virus in culture; conditions: Mesomycoplasma hyopneumoniae
Erwinia amylovora = assay: microbe, parasite or virus in culture
Pasteurella multocida = assay: microbe, parasite or virus in culture
Xanthomonas phaseoli = assay: microbe, parasite or virus in culture
Candida tropicalis = assay: microbe, parasite or virus in culture
[7] = system: Trichophyton mentagrophytes; assay: microbe, parasite or virus in culture
[8] = Enterovirus C, read-out: diameter of zone of virus inhibition
[9] = 29 mg./kg. intraperitoneal, One Hour
[10] = 29 mg./kg. intraperitoneal, Six Hours
[11] = 58 mg./kg. intraperitoneal, One Hour
[12] = 58 mg./kg. intraperitoneal, Six Hours
[13] = 117 mg./kg. intraperitoneal, One Hour
[14] = 234 mg./kg. intraperitoneal, One Hour
[15] = Enterovirus C; read-out: diameter of zone of virus inhibition

SMILES: CN1C(=O)C2(Cc3ccccc3)SSC1(CO)C(=O)N2C (single isomer, unassigned) [Factor A, 3-benzyl-6-(hydroxymethyl)-1,4-dimethyl-3,6-epidithio-2,5-piperazinedione]
- zone of inhibition at 100 µg/mL (Staphylococcus aureus [1]): 12 mm
- zone of inhibition at 1000 µg/mL (Staphylococcus aureus [1]): 23 mm
- zone of inhibition at 1000 µg/mL (Mycobacterium avium): 14 mm
- zone of inhibition at 100 µg/mL (Bacillus subtilis): 11 mm
- zone of inhibition at 1000 µg/mL (Bacillus subtilis): 22 mm
- zone of inhibition at 100 µg/mL (Sarcina lutea): 18 mm
- zone of inhibition at 1000 µg/mL (Sarcina lutea): 28 mm
- zone of inhibition at 1000 µg/mL (Escherichia coli): 12 mm
- zone of inhibition at 1000 µg/mL (Klebsiella pneumoniae): 12 mm
- zone of inhibition at 1000 µg/mL (Serratia marcescens): 14 mm
- zone of inhibition at 100 µg/mL [2]: 19 mm
- zone of inhibition at 1000 µg/mL [2]: 32 mm
- zone of inhibition at 100 µg/mL (Neurospora crassa): 13 mm
- zone of inhibition at 1000 µg/mL (Neurospora crassa): 27 mm
- zone of inhibition at 1000 µg/mL (Candida albicans): 28 mm
- zone of inhibition at 100 µg/mL (Fusarium moniliforme): 10 mm
- zone of inhibition at 1000 µg/mL (Fusarium moniliforme): 14 mm
- zone of inhibition at 100 µg/mL [3]: 19 mm
- zone of inhibition at 1000 µg/mL [3]: 27 mm
- zone of inhibition at 1.5 µg/mL (Type III poliovirus; [8]): 16 mm
- zone of inhibition at 3.2 µg/mL (Type III poliovirus; [8]): 24 mm
- zone of inhibition at 7.5 µg/mL (Type III poliovirus; [8]): 30 mm
- zone of inhibition at 15 µg/mL (Type III poliovirus; [8]): 34 mm
- zone of inhibition at 31.1 µg/mL (Type III poliovirus; [8]): 38 mm
- zone of inhibition at 62.2 µg/mL (Type III poliovirus; [8]): 40 mm
- zone of inhibition at 125 µg/mL (Type III poliovirus; [8]): 44 mm
- zone of inhibition at 250 µg/mL (Type III poliovirus; [8]): 46 mm
- zone of inhibition at 500 µg/mL (Type III poliovirus; [8]): 50 mm
- zone of inhibition at 1000 µg/mL (Type III poliovirus; [8]): 50 mm
- zone of inhibition at 1.5 µg/mL [4]: 15 mm
- zone of inhibition at 3.2 µg/mL [4]: 20 mm
- zone of inhibition at 7.5 µg/mL [4]: 26 mm
- zone of inhibition at 15 µg/mL [4]: 32 mm
- zone of inhibition at 31.1 µg/mL [4]: 35 mm
- zone of inhibition at 62.2 µg/mL [4]: 38 mm
- zone of inhibition at 125 µg/mL [4]: 40 mm
- zone of inhibition at 250 µg/mL [4]: 45 mm
- zone of inhibition at 500 µg/mL [4]: 50 mm
- zone of inhibition at 1000 µg/mL [4]: 52 mm
- Z (zone diameter of viral inhibition by serum) (poliovirus III; [9]): 20 millimeters
- Z (zone diameter of viral inhibition by serum) (poliovirus III; [10]): 18 millimeters
- Z (zone diameter of viral inhibition by serum) (poliovirus III; [11]): 24 millimeters
- Z (zone diameter of viral inhibition by serum) (poliovirus III; [12]): 23 millimeters
- Z (zone diameter of viral inhibition by serum) (poliovirus III; [13]): 29 millimeters
- Z (zone diameter of viral inhibition by serum) (poliovirus III; [14]): 30 millimeters
- antiviral activity in vivo (poliovirus III; biological activity of serum levels in mice): demonstrated in vivo from the biological activity of serum levels in mice
- titratable groups (electrometric titration): did not indicate the presence of titratable groups
- antiviral activity ([5]; tissue culture): demonstrated against several viruses, including polioviruses and Coxsackie virus; also recorded: antiviral agents; also recorded: antiviral activity
- Survivors (White Swiss mice; [9]): 4
- Survivors (White Swiss mice; [10]): 4
- Survivors (White Swiss mice; [11]): 4
- Survivors (White Swiss mice; [12]): 4
- Survivors (White Swiss mice; [13]): 4
- Survivors (White Swiss mice; 117 mg./kg. intraperitoneal, Six Hours): 0
- Survivors (White Swiss mice; [14]): 4
- Survivors (White Swiss mice; 234 mg./kg. intraperitoneal, Six Hours): 0

SMILES: CC1CCCCCCCCCC(OC(=O)CCC(=O)O)C(=O)/C=C/C(=O)O1 (centres unmarked) [Factor B, mono(16-methyl-2,5-dioxooxacyclohexadec-3-en-6-yl) succinate]
- zone of inhibition at 100 µg/mL (Staphylococcus aureus [1]): 15 mm
- zone of inhibition at 1000 µg/mL (Staphylococcus aureus [1]): 24 mm
- zone of inhibition at 1000 µg/mL (Bacillus subtilis): 14 mm
- zone of inhibition at 100 µg/mL (Sarcina lutea): 12 mm
- zone of inhibition at 1000 µg/mL (Sarcina lutea): 22 mm
- zone of inhibition at 100 µg/mL [2]: 12 mm
- zone of inhibition at 1000 µg/mL [2]: 25 mm
- zone of inhibition at 1000 µg/mL (Neurospora crassa): 13 mm
- zone of inhibition at 1000 µg/mL [3]: 14 mm
- MIC (Botrytis cinerea): 12.5 µg/mL
- MIC (Ceratocystis ulmi): 6.25 µg/mL
- MIC (Verticillium albo-atrum): 50 µg/mL
- MIC (Staphylococcus aureus [6]): < 1.56 µg/mL
- MIC (Streptococcus faecalis): 25 µg/mL
- MIC (Vibrio coli): 50 µg/mL
- MIC (Mycoplasma gallisepticum): 3.12 µg/mL
- MIC (Mycoplasma granularum): 50 µg/mL
- MIC (Mycoplasma synoviae): 12.5 µg/mL
- MIC (Mycoplasma hyosynoviae): 12.5 µg/mL
- MIC (Mycoplasma hyopneumoniae): 12.5 µg/mL
- MIC (Erwinia amylovora): < 0.78 µg/mL
- MIC (Pasteurella multocida): 6.25 µg/mL
- MIC (Xanthomonas phaseoli): 50 µg/mL
- MIC (Candida tropicalis): 100 µg/mL
- MIC [7]: 6.25 µg/mL

SMILES: CN1C(=O)C2(Cc3ccccc3)SSSSC1(CO)C(=O)N2C (centres unmarked) [Factor C, 3-benzyl-6-(hydroxymethyl)-1,4-dimethyl-3,6-epitetrathio-2,5-piperazinedione]
- zone of inhibition at 100 µg/mL (Type III poliovirus; [15]): 40 mm
- zone of inhibition at 1000 µg/mL (Type III poliovirus; [15]): 50 mm
- zone of inhibition at 100 µg/mL [4]: 40 mm
- zone of inhibition at 1000 µg/mL [4]: 50 mm
- antiviral activity [5]: demonstrated against several viruses, including polioviruses and Coxsackie virus; also recorded: antiviral agents; also recorded: antiviral activity
